Measurements from US11542235B2, “Herbicidal 3-azaspiro[5.5] undecane-8, 10-dione compounds” (SYNGENTA PARTICIPATIONS AG, priority 2018, dated 2023).

The molecules below were run on Lolium perenne (LOLPE) (assay: Glasshouse herbicidal test, pre- and post-emergence, Lolium perenne). Conditions: post-emergence, 250 g/h, evaluated after 13 days, five point scale.
Type: in vivo
Procedure: (§1) Seeds of a variety of test species are sown in standard soil in pots (Lolium perenne (LOLPE), Setaria faberi (SETFA), Alopecurus myosuroides (ALOMY), Echinochloa crus-galli (ECHCG), Avena fatua (AVEFA)). After cultivation for one day (pre-emergence) or after 8 days cultivation (post-emergence) under controlled conditions in a glasshouse (at 24/16° C., day/night; 14 hours light; 65% humidity), the plants are sprayed with an aqueous spray solution derived from the formulation of the technical active ingredient in acetone/water (50:50) solution containing 0.5% Tween 20 (polyoxyethelyene sorbitan monolaurate, CAS RN 9005-64-5). Compounds are applied at […]. The test plants are then grown in a glasshouse under controlled conditions in a glasshouse (at 24/16° C., day/night; 14 hours light; 65% humidity) and watered twice daily. After 13 days for pre and post-emergence, the test is evaluated for the percentage damage caused to the plant. The biological activities are shown in the following table on a five point scale (5=80-100%; 4=60-79%; 3=40-59%; 2=20-39%; 1=0-19%).
CC#Cc1cc(OC)c(C2C(=O)CC3(CCN(OC)CC3)CC2=O)c(OC)c1 [Compound A4] was tested, and the “percentage damage caused to the plant, LOLPE POST” value was 5 (5=80-100%).
CC#Cc1cc(C)c(C2C(=O)CC3(CCN(C(=O)C(F)(F)F)CC3)CC2=O)c(C)c1 [Compound A5] was tested, and the “percentage damage caused to the plant, LOLPE POST” value was 5 (5=80-100%).
With CC#Cc1cc(C)c(C2C(=O)CC3(CCN(C(=O)C(F)F)CC3)CC2=O)c(C)c1 [Compound A6] the “percentage damage caused to the plant, LOLPE POST” value was 5 (5=80-100%).
CC#Cc1cc(C)c(C2C(=O)CC3(CCN(CC(F)(F)F)CC3)CC2=O)c(C)c1 [Compound A7] was tested, and the “percentage damage caused to the plant, LOLPE POST” value was 5 (5=80-100%).
For CC#Cc1cc(C)c(C2C(=O)CC3(CCN(OC)CC3)CC2=O)c(C)c1 [Compound A8], the “percentage damage caused to the plant, LOLPE POST” value was 5 (5=80-100%).

Same assay, conditions: pre-emergence, 250 g/h, evaluated after 13 days, five point scale
In the case of CC#Cc1cc(OC)c(C2C(=O)CC3(CCN(OC)CC3)CC2=O)c(OC)c1 [Compound A4], the “percentage damage caused to the plant, LOLPE PRE” value is reported as 5 (5=80-100%).
With CC#Cc1cc(C)c(C2C(=O)CC3(CCN(C(=O)C(F)(F)F)CC3)CC2=O)c(C)c1 [Compound A5] the “percentage damage caused to the plant, LOLPE PRE” value was 5 (5=80-100%).
With CC#Cc1cc(C)c(C2C(=O)CC3(CCN(C(=O)C(F)F)CC3)CC2=O)c(C)c1 [Compound A6] the “percentage damage caused to the plant, LOLPE PRE” value was 5 (5=80-100%).
With CC#Cc1cc(C)c(C2C(=O)CC3(CCN(CC(F)(F)F)CC3)CC2=O)c(C)c1 [Compound A7] the “percentage damage caused to the plant, LOLPE PRE” value was 5 (5=80-100%).
CC#Cc1cc(C)c(C2C(=O)CC3(CCN(OC)CC3)CC2=O)c(C)c1 [Compound A8] was tested, and the “percentage damage caused to the plant, LOLPE PRE” value was 5 (5=80-100%).

These molecules were tested on Avena fatua (AVEFA) (assay: Glasshouse herbicidal test, pre- and post-emergence, Avena fatua). Conditions: post-emergence, 250 g/h, evaluated after 13 days, five point scale.
Type: in vivo
Procedure: as §1
CC#Cc1cc(OC)c(C2C(=O)CC3(CCN(OC)CC3)CC2=O)c(OC)c1 [Compound A4] was tested, and the “percentage damage caused to the plant, AVEFA POST” value was 5 (5=80-100%).
CC#Cc1cc(C)c(C2C(=O)CC3(CCN(C(=O)C(F)(F)F)CC3)CC2=O)c(C)c1 [Compound A5] was tested, and the “percentage damage caused to the plant, AVEFA POST” value was 5 (5=80-100%).
In the case of CC#Cc1cc(C)c(C2C(=O)CC3(CCN(C(=O)C(F)F)CC3)CC2=O)c(C)c1 [Compound A6], the “percentage damage caused to the plant, AVEFA POST” value is reported as 5 (5=80-100%).
For CC#Cc1cc(C)c(C2C(=O)CC3(CCN(CC(F)(F)F)CC3)CC2=O)c(C)c1 [Compound A7], the “percentage damage caused to the plant, AVEFA POST” value was 5 (5=80-100%).
In the case of CC#Cc1cc(C)c(C2C(=O)CC3(CCN(OC)CC3)CC2=O)c(C)c1 [Compound A8], the “percentage damage caused to the plant, AVEFA POST” value is reported as 5 (5=80-100%).

Same assay, conditions: pre-emergence, 250 g/h, evaluated after 13 days, five point scale
With CC#Cc1cc(OC)c(C2C(=O)CC3(CCN(OC)CC3)CC2=O)c(OC)c1 [Compound A4] the “percentage damage caused to the plant, AVEFA PRE” value was 5 (5=80-100%).
CC#Cc1cc(C)c(C2C(=O)CC3(CCN(C(=O)C(F)(F)F)CC3)CC2=O)c(C)c1 [Compound A5] was tested, and the “percentage damage caused to the plant, AVEFA PRE” value was 5 (5=80-100%).
CC#Cc1cc(C)c(C2C(=O)CC3(CCN(C(=O)C(F)F)CC3)CC2=O)c(C)c1 [Compound A6] was tested, and the “percentage damage caused to the plant, AVEFA PRE” value was 5 (5=80-100%).
In the case of CC#Cc1cc(C)c(C2C(=O)CC3(CCN(CC(F)(F)F)CC3)CC2=O)c(C)c1 [Compound A7], the “percentage damage caused to the plant, AVEFA PRE” value is reported as 5 (5=80-100%).
For CC#Cc1cc(C)c(C2C(=O)CC3(CCN(OC)CC3)CC2=O)c(C)c1 [Compound A8], the “percentage damage caused to the plant, AVEFA PRE” value was 5 (5=80-100%).

What follows are molecules tested on Echinochloa crus-galli (ECHCG) (assay: Glasshouse herbicidal test, pre- and post-emergence, Echinochloa crus-galli). Conditions: post-emergence, 250 g/h, evaluated after 13 days, five point scale.
Type: in vivo
Procedure: as §1
In the case of CC#Cc1cc(OC)c(C2C(=O)CC3(CCN(OC)CC3)CC2=O)c(OC)c1 [Compound A4], the “percentage damage caused to the plant, ECHCG POST” value is reported as 5 (5=80-100%).
In the case of CC#Cc1cc(C)c(C2C(=O)CC3(CCN(C(=O)C(F)(F)F)CC3)CC2=O)c(C)c1 [Compound A5], the “percentage damage caused to the plant, ECHCG POST” value is reported as 5 (5=80-100%).
For CC#Cc1cc(C)c(C2C(=O)CC3(CCN(C(=O)C(F)F)CC3)CC2=O)c(C)c1 [Compound A6], the “percentage damage caused to the plant, ECHCG POST” value was 5 (5=80-100%).
For CC#Cc1cc(C)c(C2C(=O)CC3(CCN(CC(F)(F)F)CC3)CC2=O)c(C)c1 [Compound A7], the “percentage damage caused to the plant, ECHCG POST” value was 5 (5=80-100%).
In the case of CC#Cc1cc(C)c(C2C(=O)CC3(CCN(OC)CC3)CC2=O)c(C)c1 [Compound A8], the “percentage damage caused to the plant, ECHCG POST” value is reported as 5 (5=80-100%).

Same assay, conditions: pre-emergence, 250 g/h, evaluated after 13 days, five point scale
CC#Cc1cc(OC)c(C2C(=O)CC3(CCN(OC)CC3)CC2=O)c(OC)c1 [Compound A4] was tested, and the “percentage damage caused to the plant, ECHCG PRE” value was 5 (5=80-100%).
With CC#Cc1cc(C)c(C2C(=O)CC3(CCN(C(=O)C(F)(F)F)CC3)CC2=O)c(C)c1 [Compound A5] the “percentage damage caused to the plant, ECHCG PRE” value was 5 (5=80-100%).
With CC#Cc1cc(C)c(C2C(=O)CC3(CCN(C(=O)C(F)F)CC3)CC2=O)c(C)c1 [Compound A6] the “percentage damage caused to the plant, ECHCG PRE” value was 5 (5=80-100%).
CC#Cc1cc(C)c(C2C(=O)CC3(CCN(CC(F)(F)F)CC3)CC2=O)c(C)c1 [Compound A7] was tested, and the “percentage damage caused to the plant, ECHCG PRE” value was 5 (5=80-100%).
CC#Cc1cc(C)c(C2C(=O)CC3(CCN(OC)CC3)CC2=O)c(C)c1 [Compound A8] was tested, and the “percentage damage caused to the plant, ECHCG PRE” value was 5 (5=80-100%).

Each molecule was assayed on Alopecurus myosuroides (ALOMY) (assay: Glasshouse herbicidal test, pre- and post-emergence, Alopecurus myosuroides). Conditions: post-emergence, 250 g/h, evaluated after 13 days, five point scale.
Type: in vivo
Procedure: as §1
For CC#Cc1cc(OC)c(C2C(=O)CC3(CCN(OC)CC3)CC2=O)c(OC)c1 [Compound A4], the “percentage damage caused to the plant, ALOMY POST” value was 5 (5=80-100%).
For CC#Cc1cc(C)c(C2C(=O)CC3(CCN(C(=O)C(F)(F)F)CC3)CC2=O)c(C)c1 [Compound A5], the “percentage damage caused to the plant, ALOMY POST” value was 5 (5=80-100%).
With CC#Cc1cc(C)c(C2C(=O)CC3(CCN(C(=O)C(F)F)CC3)CC2=O)c(C)c1 [Compound A6] the “percentage damage caused to the plant, ALOMY POST” value was 5 (5=80-100%).
In the case of CC#Cc1cc(C)c(C2C(=O)CC3(CCN(CC(F)(F)F)CC3)CC2=O)c(C)c1 [Compound A7], the “percentage damage caused to the plant, ALOMY POST” value is reported as 5 (5=80-100%).
With CC#Cc1cc(C)c(C2C(=O)CC3(CCN(OC)CC3)CC2=O)c(C)c1 [Compound A8] the “percentage damage caused to the plant, ALOMY POST” value was 5 (5=80-100%).

Same assay, conditions: pre-emergence, 250 g/h, evaluated after 13 days, five point scale
With CC#Cc1cc(OC)c(C2C(=O)CC3(CCN(OC)CC3)CC2=O)c(OC)c1 [Compound A4] the “percentage damage caused to the plant, ALOMY PRE” value was 5 (5=80-100%).
In the case of CC#Cc1cc(C)c(C2C(=O)CC3(CCN(C(=O)C(F)(F)F)CC3)CC2=O)c(C)c1 [Compound A5], the “percentage damage caused to the plant, ALOMY PRE” value is reported as 5 (5=80-100%).
CC#Cc1cc(C)c(C2C(=O)CC3(CCN(C(=O)C(F)F)CC3)CC2=O)c(C)c1 [Compound A6] was tested, and the “percentage damage caused to the plant, ALOMY PRE” value was 5 (5=80-100%).
For CC#Cc1cc(C)c(C2C(=O)CC3(CCN(CC(F)(F)F)CC3)CC2=O)c(C)c1 [Compound A7], the “percentage damage caused to the plant, ALOMY PRE” value was 5 (5=80-100%).
CC#Cc1cc(C)c(C2C(=O)CC3(CCN(OC)CC3)CC2=O)c(C)c1 [Compound A8] was tested, and the “percentage damage caused to the plant, ALOMY PRE” value was 5 (5=80-100%).

What follows are molecules tested on Setaria faberi (SETFA) (assay: Glasshouse herbicidal test, pre- and post-emergence, Setaria faberi). Conditions: post-emergence, 250 g/h, evaluated after 13 days, five point scale.
Type: in vivo
Procedure: as §1
With CC#Cc1cc(OC)c(C2C(=O)CC3(CCN(OC)CC3)CC2=O)c(OC)c1 [Compound A4] the “percentage damage caused to the plant, SETFA POST” value was 5 (5=80-100%).
In the case of CC#Cc1cc(C)c(C2C(=O)CC3(CCN(C(=O)C(F)(F)F)CC3)CC2=O)c(C)c1 [Compound A5], the “percentage damage caused to the plant, SETFA POST” value is reported as 5 (5=80-100%).
CC#Cc1cc(C)c(C2C(=O)CC3(CCN(C(=O)C(F)F)CC3)CC2=O)c(C)c1 [Compound A6] was tested, and the “percentage damage caused to the plant, SETFA POST” value was 5 (5=80-100%).
In the case of CC#Cc1cc(C)c(C2C(=O)CC3(CCN(CC(F)(F)F)CC3)CC2=O)c(C)c1 [Compound A7], the “percentage damage caused to the plant, SETFA POST” value is reported as 5 (5=80-100%).
With CC#Cc1cc(C)c(C2C(=O)CC3(CCN(OC)CC3)CC2=O)c(C)c1 [Compound A8] the “percentage damage caused to the plant, SETFA POST” value was 5 (5=80-100%).

Same assay, conditions: pre-emergence, 250 g/h, evaluated after 13 days, five point scale
CC#Cc1cc(OC)c(C2C(=O)CC3(CCN(OC)CC3)CC2=O)c(OC)c1 [Compound A4] was tested, and the “percentage damage caused to the plant, SETFA PRE” value was 5 (5=80-100%).
In the case of CC#Cc1cc(C)c(C2C(=O)CC3(CCN(C(=O)C(F)(F)F)CC3)CC2=O)c(C)c1 [Compound A5], the “percentage damage caused to the plant, SETFA PRE” value is reported as 5 (5=80-100%).
CC#Cc1cc(C)c(C2C(=O)CC3(CCN(C(=O)C(F)F)CC3)CC2=O)c(C)c1 [Compound A6] was tested, and the “percentage damage caused to the plant, SETFA PRE” value was 5 (5=80-100%).
CC#Cc1cc(C)c(C2C(=O)CC3(CCN(CC(F)(F)F)CC3)CC2=O)c(C)c1 [Compound A7] was tested, and the “percentage damage caused to the plant, SETFA PRE” value was 5 (5=80-100%).
For CC#Cc1cc(C)c(C2C(=O)CC3(CCN(OC)CC3)CC2=O)c(C)c1 [Compound A8], the “percentage damage caused to the plant, SETFA PRE” value was 5 (5=80-100%).
